Experimental data: patent publication US4221781A, “Synergistic penicillin-cephalosporin compositions and methods” (priority 1971, dated 1980)

Key:
Type in all cases: cell-based
[1] = test system: clinically isolated coliform bacterium; test: Example 5: in vitro M.I.C. of IV, various penicillins and 1:1 combinations
Procedure: (§1) Tryptose phosphate broth, containing the appropriate concentrations of the compounds or of the combination of them, was inoculated with 0.5×10^4 -5×10^4 organisms of the various microorganisms tested and incubated overnight at 37° C. Minimum inhibitory concentrations (M.I.C.) were taken as the concentrations of the compounds or of the combination at which no visible growth occurred.
Using the same technique as described in Example 1 the in vitro activity of 6[(piperidyl-1)-methyleneamino]-penicillianic acid (IV), of various penicillins, and of 1:1 combinations of IV with these penicillins, was determined against a clinically isolated coliform bacterium.

[2] = test system: Proteus (Proteus Mirabilis I 190); test: Example 11: in vitro M.I.C. of II, cephalosporins and 1:1 combinations; settings: Proteus Mirabilis I 190, read-out: M.I.C.
Procedure: as §1
Using the same technique as described in Example 1 the in vitro activity of 6-[(hexahydro-1H-azepin-1-yl)methyleneamino]penicillanic acid (II), of various cephalosporins and of 1:1 combinations of II with these cephalosporins was determined against a clinically isolated strain of Proteus (Proteus Mirabilis I 190).

[3] = test system: Klebsiella-Enterobacter (strain 4/71); test: Example 10: in vitro M.I.C. of II, cephalosporins and 1:1 combinations; settings: Klebsiella-Enterobacter strain 4/71; read-out: M.I.C.
Procedure: as §1
Using the same technique as described in Example 1 the in vitro activity of 6-[(hexahydro-1H-azepin-1-yl)methyleneamino]penicillanic acid (II), of various cephalosporins previously mentioned in this specification, and of 1:1 combinations of II with these cephalosporins was determined against a clinically isolated strain of Klebsiella-Enterobacter (strain 4/71)

Row | SMILES | MIC [1] [µg/mL] | MIC [2] [µg/mL] | MIC [3] [µg/mL]
1 | CC1(C)S[C@@H]2[C@H](NC(=O)[C@H](N=[N+]=[N-])c3ccccc3)C(=O)N2[C@H]1C(=O)O [6-(D-α-azidophenylacetamido)penicillanic acid] | 50 |  | 
2 | CC(=O)OCC1=C(C(=O)O)N2C(=O)[C@@H](NC(=O)CC#N)[C@H]2SC1 [Cephacetrile] |  | 12.5 | 50
3 | CC1=C(C(=O)O)N2C(=O)[C@@H](NC(=O)[C@H](N)c3ccccc3)[C@H]2SC1 [Cephalexine] |  | 25 | 50
4 | O=C(Cc1cccs1)N[C@@H]1C(=O)N2C(C(=O)[O-])=C(C[n+]3ccccc3)CS[C@H]12 [Cephaloridine] |  | 6.25 | 25
5 | Cc1nnc(SCC2=C(C(=O)O)N3C(=O)[C@@H](NC(=O)Cn4cnnn4)[C@H]3SC2)s1 [Cephazoline] |  | 6.25 | 12.5
6 | CC(=O)OCC1=C(C(=O)O)N2C(=O)C(NC(=O)Cc3ccccc3)C2SC1 (stereo not drawn) [EPC 807 2/b] |  | 25 | > 100
7 | CC(=O)OCC1=C(C(=O)O)N2C(=O)C(NC(=O)Cc3cccc(Cl)c3)C2SC1 (stereo not drawn) [EPC 820/1b] |  | 50 | > 100
8 | [N-]=[N+]=NCC1=C(C(=O)O)N2C(=O)C(NC(=O)Cc3cccs3)C2SC1 (stereo not drawn) [EPC 821/4II] |  | 12.5 | 100
